The supplement of paper PMC5908809

How the values were obtained:
[1] = system: normal NK cells expanded with K562-aAPC; assay: percent inhibition of viability; higher = more inhibition; conditions: 72 h, IL-2 2.5 ng/mL
Procedure: (§1)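 Drug sensitivity and resistance testing on K562-aAPC-expanded normal NK cells: 5 concentrations (10-fold steps over a 10,000-fold range), 72 h at 37 °C, viability by CellTiter-Glo normalised to DMSO and benzethonium chloride controls; DSS from the fitted curve.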

DERL-7 (IL-2 2.5 ng/mL) [2] = assay: as above; conditions: 72 h
IMC-1 (IL-2 20 ng/mL) [3] = assay: as above; conditions: 72 h
KAI3 (IL-2 2.5 ng/mL) [4] = assay: as above; conditions: 72 h
KHYG-1 (IL-2 2.5 ng/mL) [5] = assay: as above; conditions: 72 h
NK-92 (IL-2 2.5 ng/mL) [6] = assay: as above; conditions: 72 h
NK-YS (IL-2 2.5 ng/mL) [7] = assay: as above; conditions: 72 h
NKL (IL-2 2.5 ng/mL) [8] = assay: as above; conditions: 72 h
SNK-6 (IL-2 2.5 ng/mL) [9] = assay: as above; conditions: 72 h
YT (IL-2 2.5 ng/mL) [10] = assay: as above; conditions: 72 h
[11] = system: normal primary NK cells, pool 1 (3 donors) (IL-2 2.5 ng/mL); assay: as above; conditions: 72 h
[12] = system: normal primary NK cells, pool 1 (3 donors), resting (IL-2 0 ng/mL); assay: as above; conditions: 72 h
[13] = system: normal primary NK cells, pool 2 (3 donors) (IL-2 2.5 ng/mL); assay: as above; conditions: 72 h
[14] = system: normal primary NK cells, pool 3 (3 donors) (IL-2 2.5 ng/mL); assay: as above; conditions: 72 h
[15] = system: normal NK cells expanded with K562-aAPC; assay: drug sensitivity score (DSS) (DSS units); higher = more sensitive; extreme values may be limits of the assay; conditions: 72 h; IL-2 2.5 ng/mL
Procedure: as §1

DERL-7 (IL-2 2.5 ng/mL) [16] = assay: as above; conditions: 72 h
IMC-1 (IL-2 20 ng/mL) [17] = assay: as above; conditions: 72 h
KAI3 (IL-2 2.5 ng/mL) [18] = assay: as above; conditions: 72 h
KHYG-1 (IL-2 2.5 ng/mL) [19] = assay: as above; conditions: 72 h
NK-92 (IL-2 2.5 ng/mL) [20] = assay: as above; conditions: 72 h
NK-YS (IL-2 2.5 ng/mL) [21] = assay: as above; conditions: 72 h
NKL (IL-2 2.5 ng/mL) [22] = assay: as above; conditions: 72 h
SNK-6 (IL-2 2.5 ng/mL) [23] = assay: as above; conditions: 72 h
YT (IL-2 2.5 ng/mL) [24] = assay: as above; conditions: 72 h
[25] = system: normal primary NK cells, pool 1 (3 donors) (IL-2 2.5 ng/mL); assay: as above; conditions: 72 h
[26] = system: normal primary NK cells, pool 1 (3 donors), resting (IL-2 0 ng/mL); assay: as above; conditions: 72 h
[27] = system: normal primary NK cells, pool 2 (3 donors) (IL-2 2.5 ng/mL); assay: as above; conditions: 72 h
[28] = system: normal primary NK cells, pool 3 (3 donors) (IL-2 2.5 ng/mL); assay: as above; conditions: 72 h
SNK-6 (IL-2 2.5 ng/mL) [29] = assay: relative IC50 (inflection point of fitted viability curve, relative to fitted max inhibition); higher = less sensitive; conditions: 72 h
Procedure: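 Drug sensitivity and resistance testing: 5 concentrations over a 10,000-fold range, 72 h at 37 °C, viability by CellTiter-Glo normalised to DMSO and benzethonium chloride controls. IC50 is the inflection point of a logistic fit (min fixed at 0, max fitted), so it is relative to the fitted maximal inhibition. Kept only where fitted max inhibition is at least 50%.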

COc1cc2c(NC3CCN(C(C)C)CC3)nc(C3CCCCC3)nc2cc1OCCCN1CCCC1 [UNC0638] (max concentration tested 10000 nM)
percent inhibition of viability [%]
Conditions	1 nM	10 nM	100 nM	1000 nM	10000 nM
DERL-7 (IL-2 2.5 ng/mL) [2]	2.53	3.85	-3.65	12.8	101
IMC-1 (IL-2 20 ng/mL) [3]	-2.5	-1.52	2.54	4.7	100
KAI3 (IL-2 2.5 ng/mL) [4]	-1.49	2.96	15.3	64.9	107
KHYG-1 (IL-2 2.5 ng/mL) [5]	3.45	-2.32	4.32	6.75	102
NK-92 (IL-2 2.5 ng/mL) [6]	5.67	5.27	21.5	21.4	104
NK-YS (IL-2 2.5 ng/mL) [7]	-0.95	-0.93	1.21	6.18	103
NKL (IL-2 2.5 ng/mL) [8]	-8.37	-2.53	-3.47	10	103
SNK-6 (IL-2 2.5 ng/mL) [9]	-6.73	-2.24	11.7	23.5	101
YT (IL-2 2.5 ng/mL) [10]	-0.28	-1.09	4.71	0.39	102
[1]	-0.44	0.89	0.9	3.67	100
[11]	4.83	-1.29	1.24	-5.62	100
[12]	7.27	-7.21	-5.23	10.6	100
[13]	-8.36	-2.48	-3.63	1.06	100
[14]	-4.55	-0.2	2.47	-3.99	100

Conditions	drug sensitivity score
DERL-7 (IL-2 2.5 ng/mL) [16]	7.69
IMC-1 (IL-2 20 ng/mL) [17]	6.26
KAI3 (IL-2 2.5 ng/mL) [18]	14.4
KHYG-1 (IL-2 2.5 ng/mL) [19]	6.72
NK-92 (IL-2 2.5 ng/mL) [20]	8.98
NK-YS (IL-2 2.5 ng/mL) [21]	6.67
NKL (IL-2 2.5 ng/mL) [22]	7.29
SNK-6 (IL-2 2.5 ng/mL) [23]	9.2
YT (IL-2 2.5 ng/mL) [24]	5.79
[15]	6.1
[25]	5.15
[26]	7.28
[27]	5.75
[28]	5.3

Oc1ncc(N(CCCl)CCCl)c(O)n1 [Uracil mustard]
Conditions	relative IC50 [µM]
SNK-6 (IL-2 2.5 ng/mL) [29]	> 10

O=C(O)CC1CC(c2ccccc2)=NO1 (configuration not stated) [VGX-1027] (max concentration tested 10000 nM)
percent inhibition of viability [%]
Conditions	1 nM	10 nM	100 nM	1000 nM	10000 nM
DERL-7 (IL-2 2.5 ng/mL) [2]	0.25	-1.69	-4.26	-3.18	-6.46
IMC-1 (IL-2 20 ng/mL) [3]	0.5	0.17	6.38	5.66	15.5
KAI3 (IL-2 2.5 ng/mL) [4]	-6.5	-1.11	1.3	12.6	35.1
KHYG-1 (IL-2 2.5 ng/mL) [5]	0.61	-5.96	-1.03	3.73	20
NK-92 (IL-2 2.5 ng/mL) [6]	-3.95	-4.08	-2.12	11.7	26.6
NK-YS (IL-2 2.5 ng/mL) [7]	-1.78	-5.47	0.49	4.16	16.7
NKL (IL-2 2.5 ng/mL) [8]	-7.13	-10.2	1.01	15.5	23.6
SNK-6 (IL-2 2.5 ng/mL) [9]	-0.72	-26.7	-22.3	-7.03	3.07
YT (IL-2 2.5 ng/mL) [10]	-2.93	-7	-1.39	5.41	20.1
[1]	-7.12	-7.03	0.76	6.38	14.7
[11]	-3.12	16.9	11.2	17.1	11.4
[12]	3.76	20.2	15.6	10.9	5.12
[13]	-4.95	7.51	2.82	7.55	7.46
[14]	-13.4	4.04	5.21	2.93	6.93

Conditions	drug sensitivity score
DERL-7 (IL-2 2.5 ng/mL) [16]	0
IMC-1 (IL-2 20 ng/mL) [17]	0.28
KAI3 (IL-2 2.5 ng/mL) [18]	3.28
KHYG-1 (IL-2 2.5 ng/mL) [19]	1.09
NK-92 (IL-2 2.5 ng/mL) [20]	2.51
NK-YS (IL-2 2.5 ng/mL) [21]	0.79
NKL (IL-2 2.5 ng/mL) [22]	2.41
SNK-6 (IL-2 2.5 ng/mL) [23]	0
YT (IL-2 2.5 ng/mL) [24]	1.27
[15]	0.56
[25]	4.99
[26]	0
[27]	0
[28]	0

CC[C@]1(O)C[C@@H]2CN(CCc3c([nH]c4ccccc34)[C@@](C(=O)OC)(c3cc4c(cc3OC)N(C)[C@H]3[C@@](O)(C(=O)OC)[C@H](OC(C)=O)[C@]5(CC)C=CCN6CC[C@]43[C@@H]65)C2)C1 [Vinblastine] (max concentration tested 1000 nM)
percent inhibition of viability [%]
Conditions	0.1 nM	1 nM	10 nM	100 nM	1000 nM
DERL-7 (IL-2 2.5 ng/mL) [2]	-13.4	-1.94	99.7	101	99.8
IMC-1 (IL-2 20 ng/mL) [3]	-4.96	-7.43	99.5	101	100
KAI3 (IL-2 2.5 ng/mL) [4]	-16.5	-7.66	45.5	71.1	82.4
KHYG-1 (IL-2 2.5 ng/mL) [5]	-4.6	-0.24	96.7	108	110
NK-92 (IL-2 2.5 ng/mL) [6]	-11.5	-1.18	64.9	100	107
NK-YS (IL-2 2.5 ng/mL) [7]	-5.37	-3.92	70.7	69.4	90.8
NKL (IL-2 2.5 ng/mL) [8]	-3.5	4.6	90.8	97.5	102
SNK-6 (IL-2 2.5 ng/mL) [9]	-13.4	-12.2	83.3	91.1	97.8
YT (IL-2 2.5 ng/mL) [10]	-6.33	-5.56	88.8	105	107
[1]	-6.33	-1.7	26.7	60.2	63
[11]	-10.7	7.03	4.09	14.3	22.7
[12]	-21.5	2.75	-2.96	17.9	28.1
[13]	-6.34	7.02	16.6	16.1	23.6
[14]	-4.89	5.36	12.3	3.78	13.7

Conditions	drug sensitivity score
DERL-7 (IL-2 2.5 ng/mL) [16]	30.2
IMC-1 (IL-2 20 ng/mL) [17]	29.8
KAI3 (IL-2 2.5 ng/mL) [18]	20.6
KHYG-1 (IL-2 2.5 ng/mL) [19]	30
NK-92 (IL-2 2.5 ng/mL) [20]	25.6
NK-YS (IL-2 2.5 ng/mL) [21]	24.6
NKL (IL-2 2.5 ng/mL) [22]	29.5
SNK-6 (IL-2 2.5 ng/mL) [23]	27.2
YT (IL-2 2.5 ng/mL) [24]	28.4
[15]	14.7
[25]	1.97
[26]	3.19
[27]	4.33
[28]	0.31

COc1cc2c(Nc3ccc(Cl)c(Cl)c3F)ncnc2cc1OC[C@@H]1C[C@@H]2CN(C)C[C@@H]2C1 [XL-647] (max concentration tested 1000 nM)
percent inhibition of viability [%]
Conditions	0.1 nM	1 nM	10 nM	100 nM	1000 nM
DERL-7 (IL-2 2.5 ng/mL) [2]	2.38	4.2	2.43	5.16	49.9
IMC-1 (IL-2 20 ng/mL) [3]	-7	-0.32	0.43	-6.58	6.29
KAI3 (IL-2 2.5 ng/mL) [4]	-2.77	-5.01	0.66	13.1	44
KHYG-1 (IL-2 2.5 ng/mL) [5]	-6.79	-7.9	-4.38	-1	19.7
NK-92 (IL-2 2.5 ng/mL) [6]	2.48	-1.64	0.32	10.1	56.2
NK-YS (IL-2 2.5 ng/mL) [7]	-8.01	-7.74	-6.62	1.82	42.2
NKL (IL-2 2.5 ng/mL) [8]	-12.1	-2.96	0.78	18.2	55.1
SNK-6 (IL-2 2.5 ng/mL) [9]	17.2	-16.8	-17.2	-22.1	3.73
YT (IL-2 2.5 ng/mL) [10]	-6.35	-3.87	-2.73	5.21	28.1
[1]	-7	-6.81	-2.66	7.59	37.1
[11]	0.18	15.8	5.17	13.4	36.7
[12]	-0.45	21.2	8.11	17.6	64.4
[13]	-4.62	6.47	1.95	-3.8	39.6
[14]	-9.94	18.6	6.02	-4.74	21.1

Conditions	drug sensitivity score
DERL-7 (IL-2 2.5 ng/mL) [16]	3.48
IMC-1 (IL-2 20 ng/mL) [17]	0
KAI3 (IL-2 2.5 ng/mL) [18]	4.2
KHYG-1 (IL-2 2.5 ng/mL) [19]	0.5
NK-92 (IL-2 2.5 ng/mL) [20]	4.71
NK-YS (IL-2 2.5 ng/mL) [21]	2.37
NKL (IL-2 2.5 ng/mL) [22]	5.6
SNK-6 (IL-2 2.5 ng/mL) [23]	0
YT (IL-2 2.5 ng/mL) [24]	1.99
[15]	3.02
[25]	3.29
[26]	5.88
[27]	1.68
[28]	0.47
